Values after ≈ are worked out from the molar mass of the structure shown.
Legend:
[1] = tested on: Vesicular stomatitis virus; assay: Antiviral activity against VSV infected in BHK cells assessed as inhibition of plaque formation; type: functional, organism-based
Human alphaherpesvirus 1 [2] = assay: Antiviral activity against HSV1 infected in monkey CV-1 cells assessed as inhibition of plaque formation; type: functional, organism-based; conditions: Human alphaherpesvirus 1, CV-1
Human alphaherpesvirus 1 [3] = assay: Antiviral activity against HSV1 infected in human primary amnion cells assessed as inhibition of virus-induced pathogenic effect; type: functional
[4] = Therapeutic index, ratio of MTC for human primary amnion cells to lowest drug level causing inhibition of HSV1; conditions: read-out: TI
[5] = Cytotoxicity against human primary amnion cells assessed as morphological changes by microscopic examination; type: functional
[6] = tested on: Human immunodeficiency virus 1; assay: Antiviral activity against HIV1 infected in human MT4 cells; type: functional, organism-based; conditions: Human immunodeficiency virus 1, MT4
MT4 = assay: Cytotoxicity against human MT4 cells; type: functional; conditions: read-out: CD50 (the source's name)
[7] = tested on: Human immunodeficiency virus 1; assay: Antiviral activity against HIV1 infected in human H9 cells assessed inhibition of viral replication; type: functional, organism-based; conditions: Human immunodeficiency virus 1, H9
[8] = Therapeutic index, ratio of inhibition of human H9 cells to EC50 for HIV1; type: cell-based; conditions: read-out: TI
[9] = tested on: Human immunodeficiency virus; assay: Antiviral activity against cross-resistant HIV mutant; type: functional; conditions: Human immunodeficiency virus 1; read-out: ED50 (the source's name)
[10] = tested on: Human immunodeficiency virus; assay: Antiviral activity against HIV; type: functional, organism-based; conditions: Human immunodeficiency virus 1
[11] = tested on: Human immunodeficiency virus; assay: Antiviral activity against HIV assessed as reduction of viral protein production at 0.27 uM; type: functional; design: scale not given: the % may be the effect or the level left
[12] = tested on: Human immunodeficiency virus; assay: Antiviral activity against HIV assessed as reduction of viral protein production at 0.52 uM; type: functional; design: scale not given: the % may be the effect or the level left
Sindbis virus [13] = assay: Antiviral activity against Sindbis virus in mouse 3T3-L1 cells at 273 nM; type: functional
[14] = Cytotoxicity against rabbit RL33 cells; type: cell-based, Oryctolagus cuniculus
Murid betaherpesvirus 1 [15] = assay: Antiviral activity against Murine cytomegalovirus in mouse 3T3-L1 cells at 263 nM; type: functional; conditions: Murid betaherpesvirus 1, 3T3-L1
[16] = tested on: Vesicular stomatitis virus; assay: Antiviral activity against VSV infected in rabbit RL-33 cells; type: functional
Sindbis virus [17] = assay: Antiviral activity against Sindbis virus in mouse 3T3-L1 cells at 250 nM; type: functional
Murid betaherpesvirus 1 [18] = assay: Antiviral activity against Murine cytomegalovirus in mouse 3T3-L1 cells at 250 nM; type: functional; conditions: Murid betaherpesvirus 1, 3T3-L1
[19] = Inhibition of human DNA polymerase alpha
Sindbis virus [20] = assay: Antiviral activity against Sindbis virus in mouse 3T3-L1 cells at 241 nM; type: functional
Murid betaherpesvirus 1 [21] = assay: Antiviral activity against Murine cytomegalovirus in mouse 3T3-L1 cells at 241 nM; type: functional; conditions: Murid betaherpesvirus 1, 3T3-L1

COc1cc([C@@H]2c3cc4c(cc3C[C@H]3COC(=O)[C@H]32)OCO4)cc(OC)c1OC [DEOXYPICROPODOPHYLLIN] gave an IC50 [1] of 2000 nM and an IC50 (Human alphaherpesvirus 1 [2]) of 2000 nM.

COc1cc([C@@H]2c3cc4c(cc3C[C@H]3CC(=O)C[C@@H]32)OCO4)cc(OC)c1OC [DEOXYPODOPHYLLOTOXIN CYCLOPENTANONE] gave an Activity (Human alphaherpesvirus 1 [3]) of 49 µM, a selectivity ratio [4] of 2.5 and an Activity [5] of 122 µM.

Work on COc1cc([C@H]2c3c(cc(OC)c(OC)c3OC)C[C@H]3CSC[C@@H]32)cc(OC)c1OC yielded an EC50 [6] of 800 nM and a CC50 (MT4) of 58000 nM.

COc1cc([C@@H]2c3cc4c(cc3[C@@H](O)[C@H]3COC(=O)[C@H]23)OCO4)cc(OC)c1OC [EPIPODOPHYLLOTOXIN] gave an Activity (Human alphaherpesvirus 1 [3]) of 1.6 µM, a selectivity ratio [4] of 15 and an Activity [5] of 24 µM.

COc1ccc(C[C@H]2COC(=O)[C@@H]2Cc2ccc(O)c(O)c2)cc1OC gave an EC50 [7] of 420 nM and a selectivity ratio [8] of 9.

COc1c(O)c(Cl)c2c(c1OC)-c1c(c(Cl)c(O)c(OC)c1OC)C[C@H](C)[C@H](C)C2 showed an EC50 [9] of 100 nM.

Compound COc1cc([C@@H]2c3cc4c(cc3[C@@H](O)[C@H]3COC(=O)[C@H]23)OCO4)cc(OC)c1O [4'-DEMETHYLEPIPODOPHYLLOTOXIN] has an Activity (Human alphaherpesvirus 1 [3]) of 13 µM, a selectivity ratio [4] of 1 and an Activity [5] of 13 µM.

Work on COc1ccc([C@H]2c3c(cc4c(c3OC)OCO4)C[C@H]3CSC[C@@H]32)cc1OC yielded an EC50 [6] of 3300 nM and a CC50 (MT4) greater than 840000 nM.

With COc1cc([C@H]2c3c(cc(OC)c(OC)c3OC)C[C@@H](C)[C@@H]2C)cc(OC)c1OC the EC50 [6] was 3200 nM and the CC50 (MT4) was 34000 nM.

In the case of COc1cc([C@@H]2c3cc4c(cc3C[C@H]3CSC(=O)[C@@H]32)OCO4)cc(OC)c1OC [DEOXYPODOPHYLLOTOXIN CYCLIC SULFIDE], the Activity (Human alphaherpesvirus 1 [3]) is reported as 12 µM, the selectivity ratio [4] is reported as 3 and the Activity [5] is reported as 37 µM.

COc1cc([C@@H]2c3cc4c(c(O)c3C[C@H]3COC(=O)[C@@H]32)OCO4)cc(OC)c1OC [BETA-PELTATIN A] gave an Activity (Human alphaherpesvirus 1 [3]) of 0.36 µM, a selectivity ratio [4] of 333 and an Activity [5] of 120 µM.

In the case of COc1c(O)c(Br)c2c(c1OC)-c1c(c(Br)c(O)c(OC)c1OC)C[C@H](C)[C@H](C)C2, the EC50 [9] is reported as 100 nM.

Work on COc1cc([C@@H]2c3cc4c(cc3C[C@H]3COC(=O)[C@@H]32)OCO4)cc(OC)c1OC [DESOXYPODOPHYLLOTOXIN] yielded an IC50 [1] of less than 25 nM, an Activity (Human alphaherpesvirus 1 [3]) of 0.038 µM and a selectivity ratio [4] of 667. It also gave an Activity [5] greater than 25 µM and an IC50 (Human alphaherpesvirus 1 [2]) of 25 nM.

COC(=O)[C@@H]1C(CO)=Cc2cc3c(cc2[C@H]1c1cc(OC)c(OC)c(OC)c1)OCO3 showed an IC50 [1] of 460 nM and an IC50 (Human alphaherpesvirus 1 [2]) of 460 nM.

Work on COc1cc2c(c(OC)c1OC)-c1c(cc3c(c1OC)OCO3)C[C@@H](C)[C@@H](C)C2 [KADSURANIN] yielded an IC50 [10] of 2000 nM.

For COc1c2c(cc3c1[C@H](c1ccc(OC(=O)c4ccccc4)c(O)c1)[C@H]1C(=O)OC[C@@H]1C3)OCO2, the EC50 [6] was 5220 nM and the CC50 (MT4) was greater than 840000 nM.

Compound COc1cc([C@@H]2c3cc4c(cc3[C@@H](O[C@@H]3O[C@@H]5CO[C@@H](C)O[C@H]5[C@H](O)[C@H]3O)[C@H]3COC(=O)[C@H]23)OCO4)cc(OC)c1O [ETOPOSIDE] has an Activity (Human alphaherpesvirus 1 [3]) of 85 µM, a selectivity ratio [4] of 1.2 and an Activity [5] of 100 µM.

COc1cc(C[C@@]2(O)C(=O)OC[C@@H]2Cc2ccc(OC)c(OC)c2)ccc1O showed an Activity [11] of 60% and an Activity [12] of 60%.

COc1cc([C@@H]2c3cc4c(cc3[C@H](O)[C@H]3COC(=O)[C@H]23)OCO4)cc(OC)c1O gave an IC50 [1] of 250 nM, an Activity (Human alphaherpesvirus 1 [3]) of 0.5 µM and a selectivity ratio [4] of 250. It also gave an Activity [5] greater than 125 µM and an IC50 (Human alphaherpesvirus 1 [2]) of 100 nM.

Work on COc1cc2c(O)c3c(c(-c4ccc5c(c4)OCO5)c2cc1OC)C(=O)OC3 [DIPHYLLIN] yielded an inhibition at 0.273 µM (Sindbis virus [13]) of 18%, an Activity [14] of 85 µM and an inhibition at 0.263 µM (Murid betaherpesvirus 1 [15]) of 11%. The MIC [16] was 0.16 µM (≈ 0.0609 µg/mL).

With COc1cc2c(OC)c3c(c(-c4ccc5c(c4)OCO5)c2cc1OC)C(=O)OC3 [JUSTICIDIN A] the Activity [14] was 166 µM and the MIC [16] was 0.65 µM (≈ 0.256 µg/mL).

For COc1cc([C@@H]2c3cc4c(c(O)c3C[C@H]3COC(=O)[C@@H]32)OCO4)cc(OC)c1O, the inhibition at 0.25 µM (Sindbis virus [17]) was 6%, the inhibition at 0.25 µM (Murid betaherpesvirus 1 [18]) was 85% and the Activity (Human alphaherpesvirus 1 [3]) was 0.05 µM. It also gave a selectivity ratio [4] of 4000 and an Activity [5] of 200 µM.

With COCc1cc2cc(OC)c(OC)cc2c(-c2ccc3c(c2)OCO3)c1C=O [PHYLLAMYRICIN B] the IC50 [19] was 3500 nM.

COc1cc2c(c(OC)c1OC)-c1c(cc3c(c1OC)OCO3)[C@H](OC(=O)c1ccccc1)[C@@](C)(O)[C@@H](C)C2 [GOMISIN G] gave an IC50 [10] of 11 nM.

With COc1cc(C[C@H]2C(=O)OC[C@@H]2Cc2ccc(OC)c(OC)c2)ccc1O [ARCTIGENIN] the EC50 [7] was 420 nM, the selectivity ratio [8] was 9 and the Activity [11] was 60%. It also gave an Activity [12] of 60%.

COc1cc([C@@H]2c3cc4c(c(OC)c3C[C@H]3COC(=O)[C@@H]32)OCO4)cc(OC)c1OC showed an IC50 [1] of 23 nM and an IC50 (Human alphaherpesvirus 1 [2]) of 23 nM.

Compound COc1cc([C@@H]2c3cc4c(cc3[C@@H](OC(C)=O)[C@H]3CSC(=O)[C@H]23)OCO4)cc(OC)c1OC [EPIPODOPHYLLOTOXIN ACETATE] has an IC50 [1] of 220 nM and an IC50 (Human alphaherpesvirus 1 [2]) of 440 nM.

COc1cc([C@@H]2c3cc4c(cc3[C@@H](OC)[C@H]3COC(=O)[C@H]23)OCO4)cc(OC)c1OC showed an IC50 [1] of 900 nM and an IC50 (Human alphaherpesvirus 1 [2]) of 900 nM.

With COc1c2c(cc3c1-c1c(cc4c(c1OC)OCO4)C[C@H](C)[C@H](C)C3)OCO2 [SCHISANDRIN C] the IC50 [10] was 3100 nM.

Work on COc1cc([C@@H]2c3cc4c(c(O[C@@H]5O[C@H](CO)[C@@H](O)[C@H](O)[C@H]5O)c3C[C@H]3COC(=O)[C@@H]32)OCO4)cc(OC)c1OC yielded an Activity (Human alphaherpesvirus 1 [3]) of 17 µM, a selectivity ratio [4] of 3 and an Activity [5] of 52 µM.

Compound COc1cc([C@H]2c3c(cc4c(c3OC)OCO4)C[C@H]3CSC[C@@H]32)cc(OC)c1OC has an EC50 [6] of 5100 nM and a CC50 (MT4) of 163000 nM.

With COc1cc([C@@H]2c3cc4c(cc3[C@H](OC)[C@H]3COC(=O)[C@H]23)OCO4)cc(OC)c1OC the IC50 [1] was 930 nM and the IC50 (Human alphaherpesvirus 1 [2]) was 460 nM.

COc1cc([C@@H]2c3cc4c(cc3[C@@H](OC)[C@H]3COC(=O)[C@@H]23)OCO4)cc(OC)c1OC showed an IC50 [1] of 2300 nM and an IC50 (Human alphaherpesvirus 1 [2]) of 900 nM.

In the case of COc1cc([C@@H]2c3cc4c(cc3C=C3COC(=O)[C@H]32)OCO4)cc(OC)c1OC, the IC50 [1] is reported as 250 nM and the IC50 (Human alphaherpesvirus 1 [2]) is reported as 250 nM.

For COc1cc([C@@H]2c3cc4c(cc3[C@H](O)[C@H]3COC(=O)[C@H]23)OCO4)cc(OC)c1OC [PODOFILOX], the IC50 [1] was 100 nM, the Activity (Human alphaherpesvirus 1 [3]) was 0.024 µM and the inhibition at 0.241 µM (Sindbis virus [20]) was 3%. The selectivity ratio [4] was 6000, the Activity [5] was 140 µM and the inhibition at 0.241 µM (Murid betaherpesvirus 1 [21]) was 74%. It also gave an IC50 (Human alphaherpesvirus 1 [2]) of 50 nM.

Compound COc1cc2cc3c(c(-c4ccc5c(c4)OCO5)c2cc1OC)COC3=O [RETROJUSTICIDIN B] has an IC50 [19] of 5500 nM.

For COc1cc([C@@H]2c3cc4c(cc3[C@H](O)[C@H]3COC(=O)[C@@H]23)OCO4)cc(OC)c1OC [AXL-1717], the Activity (Human alphaherpesvirus 1 [3]) was 1.9 µM, the selectivity ratio [4] was 75 and the Activity [5] was 140 µM.

Work on COc1cc([C@@H]2c3cc4c(cc3[C@H](O)[C@H]3COC[C@H]23)OCO4)cc(OC)c1OC [ANHYDROPODOPHYLLOL] yielded an Activity (Human alphaherpesvirus 1 [3]) of 0.25 µM, a selectivity ratio [4] of 800 and an Activity [5] greater than 200 µM.
